Laboratory results published in patent US20070140979A1, “Method for accelerating the rate of mucociliary clearance” (BAYER AKTIENGESELLSCHAFT, priority 1998, published 2007).

Target: Bovine chymotrypsin (Bos taurus, UniProt P00766)
Assay: Inhibition of chymotrypsin, Ki
Type: biochemical
Conditions: Chymotrypsin (5 nM)

Ki: 6 nM
Structure (SMILES): CC[C@H](C)[C@H](N)C(=O)N[C@@H](Cc1c[nH]cn1)C(=O)N[C@@H](CC(=O)O)C(=O)N[C@@H](Cc1ccccc1)C(=O)N[C@H]1CSSC[C@@H](C(=O)N[C@@H](C)C(=O)N[C@H](C(=O)N[C@H](C(=O)O)C(C)C)[C@@H](C)O)NC(=O)[C@H](CCCCN)NC(=O)[C@H](CCCCN)NC(=O)[C@H](CC(C)C)NC(=O)[C@@H]2CSSC[C@@H]3NC(=O)[C@H](CO)NC(=O)CNC(=O)[C@H](CC(=O)O)NC(=O)[C@H]([C@@H](C)O)NC(=O)[C@H](C(C)C)NC(=O)[C@H](CC(N)=O)NC(=O)[C@H](Cc4ccc(O)cc4)NC(=O)[C@H](Cc4c[nH]c5ccccc45)NC(=O)[C@H](Cc4c[nH]c5ccccc45)NC(=O)[C@H](CCCNC(=N)N)NC(=O)[C@@H]4CCCN4C(=O)[C@H](CCSC)NC(=O)[C@H](CO)NC(=O)[C@H](C)NC(=O)[C@H](CCCNC(=N)N)NC(=O)[C@H](CSSC[C@H](NC(=O)CNC(=O)CNC(=O)[C@H](Cc4ccc(O)cc4)NC(=O)[C@H](C(C)C)NC(=O)[C@H](Cc4ccccc4)NC(=O)[C@H](CC(C)C)NC(=O)[C@H](CCC(N)=O)NC3=O)C(=O)N[C@@H](CC(=O)O)C(=O)NCC(=O)N[C@@H](CC(N)=O)C(=O)N[C@@H](CO)C(=O)N[C@@H](CC(N)=O)C(=O)N[C@@H](CC(N)=O)C(=O)N[C@@H](Cc3ccc(O)cc3)C(=O)N[C@@H](CC(C)C)C(=O)N[C@@H]([C@@H](C)O)C(=O)N[C@@H](CCCCN)C(=O)N[C@@H](CCC(=O)O)C(=O)N[C@@H](CCC(=O)O)C(=O)N2)NC(=O)[C@H](CCCNC(=N)N)NC(=O)CNC(=O)[C@H](C(C)C)NC(=O)[C@H](C(C)C)NC(=O)[C@H](CCCCN)NC(=O)[C@H](CO)NC(=O)[C@H](C(C)C)NC(=O)[C@H](CC(C)C)NC1=O [bikunin (7-64)]
